Measurements as given in the METLIN SMRT retention time set (Domingo-Almenara et al. 2019).

Assay: gradient 5% acetonitrile 3 min, to 50% in 2 min, to 85% in 15 min, held 3 min, 100 µL/min
Settings: column: Zorbax Extend-C18 2.1 x 50 mm; eluents: water / acetonitrile, 0.1% formic acid
How it was run: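 Retention times of pure standards were taken from adduct peaks that were selected by computer and manually inspected. Over 3 months, mixtures of ~100 molecules were run by HPLC–quadrupole time-of-flight mass spectrometry in positive and negative ionization mode. The Zorbax Extend-C18 column (2.1 × 50 mm, 1.8 μm) ran at 100 μL/min in water and acetonitrile, each containing 0.1% formic acid, with 40 μL dead volume and 900 μL dwell volume.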

Row | Structure (SMILES) | RP-LC retention time [s]
1 | COc1ccc(-c2cn3cccnc3n2)cc1NC(=O)c1cccc(Br)c1 | 748
2 | COc1cccc(-c2nnc(N)o2)c1 | 674
3 | Cc1nnc(CNC(=O)c2cc(-c3ccc(F)cc3)c[nH]2)o1 | 649
4 | Cc1ccc(N2CC(C(=O)NCC(=O)N3CCCc4ccccc43)CC2=O)cc1C (configuration not stated) | 822
5 | CCC(c1cccs1)N1C(=O)[C@H]2CN(S(=O)(=O)c3ccc(Cl)cc3)C[C@H]2C1=O (some centres not stated) | 1060
6 | Cc1cc(-c2nn3c(C4CCCCC4)nnc3s2)c2ccccc2n1 | 949
7 | CCOc1ccc(CNCCSc2nnnn2C)cc1Cl | 618
8 | CC(=O)N1CCc2cc(C)c(S(=O)(=O)NC(C)C)cc21 | 740
9 | CCN(CC)CCNC(=O)C(C)n1c(=O)c(C(F)(F)F)nc2ccccc21 (configuration not stated) | 669
10 | CCC(c1cccs1)N1C(=O)[C@H]2CN(S(=O)(=O)c3ccc(F)cc3)C[C@H]2C1=O (some centres not stated) | 979
11 | CC(=O)Nc1nc(-c2ccc(S(=O)(=O)Nc3ccc(C)cc3)cc2)cs1 | 854
12 | COCc1cn(C2CN(C(=O)c3ccc(C)s3)C2)nn1 | 649
13 | CCN1C(=O)COc2ccc(-c3noc(-c4cnccn4)n3)cc21 | 802
14 | COc1cccc(-c2ccnc3nc(CCc4ccccc4)nn23)c1 | 970
15 | O=C(NCC1CCOCC1)Nc1cc(F)cc(F)c1 | 703
16 | Cc1cccc(-n2c(N3CCCC(C(=O)NCc4ccccc4)C3)nc3ccsc3c2=O)c1 (configuration not stated) | 880
17 | O=C(c1cn(-c2cc(N3CCSCC3)ncn2)cn1)N1CCc2ccccc2C1 | 886
18 | COC(=O)c1cc2c(=O)n(CCc3ccc(OC)c(OC)c3)ccc2nc1C | 769
19 | CCCn1nnc(NCc2ccc(-c3cc(Cl)ccc3Cl)o2)n1 | 1180
20 | O=C1CCCc2cc(S(=O)(=O)NCCCN3CCN(c4ccccc4F)CC3)ccc2N1 | 621
21 | Cc1cc(F)ccc1NC(=O)C1(C)Oc2cccnc2NC1=O (configuration not stated) | 687
22 | COCc1nncn1C1CN(C(=O)Nc2ccc(Cl)cc2C(F)(F)F)C1 | 963
23 | COc1cccc(NS(=O)(=O)c2cc3n(c2)CCN(CC(C)C)C3=O)c1 | 784

Row | Structure (SMILES) | RP-LC retention time [s]
24 | CCCN1CCN(C(=O)C2CCN(c3nc4ccc(-c5ccccc5)nc4s3)CC2)CC1 | 693
25 | N#Cc1ccc(-c2nc(-c3cccc(-c4ccn[nH]4)c3)no2)cc1 | 917
26 | Cc1ccc(-c2csc(NC(=O)CCc3nc(CSc4nc5cc(C)ccc5o4)no3)n2)cc1 | 1210
27 | O=C1COc2ccc(S(=O)(=O)N3CCCC3C(=O)N3CCN(c4ccccc4F)CC3)cc2N1 (configuration not stated) | 790
28 | CCCC(=O)N1CCc2c(c(-c3nnc(SC)n3CC)nn2C)C1 | 705
29 | Cc1cccc(OCCc2noc(C3CCNC3)n2)c1 (configuration not stated) | 646
30 | CCn1ccc2c(cc(C(=O)Nc3cccc(F)c3)n2C)c1=O | 768
31 | C=CCn1c(=O)c2cnc(Nc3ccc(N4CCN(C)CC4)cc3)nc2n1-c1cccc(C(C)(C)O)n1 | 644
32 | Cn1cnc(S(=O)(=O)N2CCCCC2c2nc(-c3cccnc3)n[nH]2)c1 (configuration not stated) | 594
33 | COc1ccc(C(=O)NCc2cnoc2-c2ccc(F)cc2)cc1OC | 820
34 | CCn1c(=O)sc2cc(S(=O)(=O)N3CCC(C(=O)Nc4ccc(F)c(F)c4)CC3)ccc21 | 955
35 | COC(=O)c1ccccc1NC(=O)Cn1nc2nc(N3CCCC(C)C3)ccn2c1=O (configuration not stated) | 863
36 | COc1cccc(CNC(=O)c2c(C(F)(F)F)nn(C)c2C)c1 | 722
37 | CCc1ccc(CNC(=O)c2cn(-c3ccc(-c4nc(C)no4)cn3)cn2)cc1 | 805
38 | Cc1noc(C2CN(C(=O)Nc3ccc(F)c(Cl)c3)CC23CCOCC3)n1 (configuration not stated) | 783
39 | Cc1ccc(CNC(=O)CN2CCN(Cc3ccc(F)cc3)C2=O)cc1C | 835
40 | C=CCNC(=O)C1CCN(C(=O)Nc2ccc(NC(=O)Nc3ccccc3F)cc2)CC1 | 710
41 | CCCNc1cc(-n2cccn2)ncn1 | 668
42 | Cc1cccc(CN2CCn3c(nnc3[C@@H]3C[C@@H](O)CN3C)C2)c1 | 590
43 | CC1CN(C(=O)CCC(=O)NC2CCN(Cc3ccccc3)CC2)c2cc(Cl)ccc2O1 (configuration not stated) | 694
44 | CCOC(=O)c1c(C)c(C(=O)C(C)N(CC)C(=O)c2ccc(Cl)cc2)c(C)n1C (configuration not stated) | 876
45 | CCC(=O)N1c2ccccc2CC1c1nc(C(C)C)no1 (configuration not stated) | 913
46 | COc1cccc(CNC(=O)C2(C)CCCN(S(=O)(=O)c3ccc(F)cc3F)C2)c1 (configuration not stated) | 922

Row | Structure (SMILES) | RP-LC retention time [s]
47 | COC(=O)c1cnc2nc(C)ccc2c1Nc1ccc(C)cc1Cl | 752
48 | Cn1c(C2CCN(S(=O)(=O)c3ccc(Cl)cc3)C2)nc2cccnc21 (configuration not stated) | 760
49 | CCCN1C(=O)c2c(C(=O)NCc3cccc(C)c3)ncn2CC1(C)C(=O)NCCC(C)C (configuration not stated) | 879
50 | COc1ccc(NC(=O)CSc2nc(N3CCCCC3)nc3ccccc23)cc1Cl | 756
51 | CS(=O)(=O)Nc1cccc(NC(=O)c2ccc(N3CCOCC3)nn2)c1 | 633
52 | Cc1cccc(NC(=O)Cn2nc(C(=O)N3CCCC3)c3ccccc32)c1 | 842
53 | Fc1ccccc1-c1noc(NCC2CCCO2)n1 (configuration not stated) | 748
54 | Cc1cc(C)n(Cc2c(C(=O)NCC3Cn4cccc4C(=O)N3C)noc2C)n1 (configuration not stated) | 688
55 | CCCN1CCN(c2ccc(-c3nc(-c4ccc(C)cc4)no3)cn2)CC1 | 750
56 | CC(=O)Nc1ccc(OCC(=O)NCc2ccc(N3CCOCC3)cc2)nc1 | 604
57 | CCn1ccc(NC(=O)Nc2ccccc2C)n1 | 801
58 | COc1ccc(OC)c(Nc2c(-c3ccc(Br)cc3)nc3cnccn23)c1 | 1000
59 | COc1ccc(Cl)cc1NC(=O)N1CCC(n2c(C)nc3cccnc32)CC1 | 682
60 | Cc1cccc(NC(=O)c2csc(-c3cn(C)c4ncccc34)n2)c1C | 1050
61 | CC(=O)N1CCc2ccccc2C1C(=O)NCc1ccc(F)cc1 (configuration not stated) | 762
62 | CCOC(=O)C(C(=O)N1CCN(C)CC1)C1CCCCC1 (configuration not stated) | 629
63 | COc1ccc(-c2cn3ccn(-c4cc(C)cc(C)c4)c(=O)c3n2)cc1OC | 797
64 | O=C(O)CNC(=O)c1c(O)c2ccccc2n(Cc2ccccc2)c1=O | 989
65 | Cc1sc2ccn(C)c(=O)c2c1C(=O)NCc1ccccc1Cl | 798
66 | CC(C)CCNC(=O)c1cc2n(n1)CC(C)(C(=O)NCc1ccccc1)N(C)C2=O (configuration not stated) | 758
67 | O=C(NCc1ccco1)c1nc2ccccn2c1-c1ccccc1 | 783
68 | COc1ccc(-c2cc(N)n[nH]2)c(OC)c1 | 595
69 | COc1ccc(NC(=O)N2CCCC2c2nc(-c3ccccc3OC)no2)c(OC)c1 (configuration not stated) | 871

Row | Structure (SMILES) | RP-LC retention time [s]
70 | CC(=O)N1CCC(n2c(C)nc(C(=O)Nc3ccc4c(c3)OCO4)c2C)CC1 | 603
71 | CC1CCCCN1CCNC(=O)c1ccc2ccnc(N3CCN(c4ccc(Cl)cc4)CC3)c2c1 (configuration not stated) | 664
72 | Cc1ccc(Nc2nc(-c3ccccc3)cs2)cc1 | 1170
73 | Cc1ccc(-n2ccc(=O)c(-c3nc(-c4ccc(F)c(Br)c4)no3)n2)cc1C | 1120
74 | O=C(Cn1ccn2nc(-c3ccccc3)c(CO)c2c1=O)N1CCCc2ccccc21 | 861
75 | CCCNC(=O)c1ccc(-c2ccc(N3CCSCC3)nc2)cc1 | 666
76 | CCOc1ccc(NC(=O)N2CCC(c3nc(C(=O)N(C)C)c(C)o3)CC2)cc1 | 696
77 | Cc1ccc(CNC(=O)C2(C)CCCN(C(=O)Nc3ccc(C)c(C)c3)C2)cc1 (configuration not stated) | 897
78 | Cc1ccc(CNC(=O)Cc2c(C(=O)O)c(C)cn2C)o1 | 695
79 | CCCn1c(=O)c(C)nc2cc(-c3noc(-c4ccc(Br)o4)n3)ccc21 | 1160
80 | CNC(=O)[C@@H]1CN(C(=O)c2cscn2)C[C@H]1c1nc(COC)no1 | 582
81 | CCOc1ccccc1-c1noc(-c2nnn3c2COC(c2cccc(OC)c2)C3)n1 (configuration not stated) | 1080
82 | O=C(Cc1coc2ccc3ccccc3c12)NCc1ccco1 | 818
83 | CCCN(CCC)S(=O)(=O)c1cccc(-c2cn3cccc(C)c3n2)c1 | 774
84 | Cc1[nH]c(C(=O)NC2CCCCC2)c(C)c1S(=O)(=O)N1CCCC1 | 843
85 | O=C(CSc1nccn1-c1ccc(C(=O)NCc2cccs2)cc1)Nc1ccccc1 | 671
86 | CCCn1cc(C2=CCN(C(=O)Nc3cccc(Cl)c3F)CC2)c2cccnc21 | 773
87 | CCCCOc1ccc2c(=O)c3ccc(O)cc3oc2c1 | 928
88 | Cc1ccc(-n2nc(N3CCN(C(=O)Nc4ccc(F)cc4F)CC3)ccc2=O)cc1 | 781
89 | Cn1c(C(=O)Nc2ccc(F)cc2F)cc2c(=O)oc3ccccc3c21 | 923
90 | CCNc1cc(N2CCC(CCC(=O)NC(CC)CC)CC2)ncn1 | 639
91 | COC(=O)c1c(NCc2cccs2)c2cccc(Cl)c2[nH]c1=O | 764
92 | CCN1CCN(c2ccc(NC(=O)c3ccccc3Cl)cn2)C1=O | 672
